ChEMBL document CHEMBL1821565, “I. Novel HCV NS5B polymerase inhibitors: discovery of indole 2-carboxylic acids with C3-heterocycles” (Bioorg Med Chem Lett, 2011)

What was measured:
Hepatitis C virus = assay: Antiviral activity against HCV subtype 1b Con1 reduction in replicon RNA level using RT-PCR by cell based replicon assay; assay type: functional, organism-based, Hepacivirus hominis
[1] = Inhibition of HCV NS5B after 150 mins by [33P]-CTP incorporation assay; design: species or system Hepacivirus hominis
[2] = Hepatitis C virus, Con1, read-out: EC50

Structure (SMILES) | EC50 (Hepatitis C virus; [2]) [µM] | IC50 [1] [nM] | EC50 (Hepatitis C virus)
O=C(O)c1c(-c2cccc(Cl)c2)c2cc(Cl)ccc2n1Cc1cccc(Cl)c1 | > 25 | 33000 | –
O=C(O)c1cc2cc(Cl)ccc2n1Cc1ccccc1F | > 25 | 17000 | –
O=C(O)c1c(-n2c(=O)[nH]c3nccnc3c2=O)c2cc(C(F)(F)F)ccc2n1Cc1cc(F)ccc1F | > 10 | 270 | –
O=C(O)c1c(-c2ccccc2F)c2cc(Cl)ccc2n1Cc1cccnc1 | > 25 | 1300 | –
O=C(O)c1c(-c2ccccc2F)c2cc(Cl)ccc2n1Cc1ccc2ccccc2c1 | > 25 | 4400 | –
Cn1c(C(=O)O)c(-c2ccccc2F)c2cc(Cl)ccc21 | > 25 | 1300 | –
N#Cc1cccc(-c2c(C(=O)O)n(Cc3cccc(Cl)c3)c3ccc(Cl)cc23)c1 | > 25 | 30000 | –
CC(=O)n1c(C(=O)O)c(-c2ccccc2F)c2cc(Cl)ccc21 | > 25 | 8100 | –
NC(=O)Nc1c(C(=O)O)n(Cc2cc(F)ccc2F)c2ccc(C(F)(F)F)cc12 | > 10 | 350 | –
Nc1cc(Cn2c(C(=O)O)c(N3CCNS3(=O)=O)c3cc(Cl)ccc32)ccn1 | – | > 20000 | Not Active
CC(=O)Nc1cccc(Cn2c(C(=O)O)c(-c3ccccc3F)c3cc(Cl)ccc32)c1 | > 25 | 600 | –
O=C(O)c1c(-c2ccc3c(c2)OCO3)c2cc(Cl)ccc2n1Cc1cccc(Cl)c1 | > 25 | 29000 | –
O=C(O)c1c(-c2ccccc2F)c2cc(Cl)ccc2n1C(=O)c1ccccc1 | > 25 | 7800 | –
O=C(O)c1c(-c2ccccc2)c2cc(Cl)ccc2n1Cc1cccc(Cl)c1 | > 25 | 4200 | –
O=C(O)c1c(-c2ccccc2F)c2cc(Cl)ccc2n1Cc1cccc(NCc2ccccc2)c1 | > 25 | 700 | –
Nc1cc(Cn2c(C(=O)O)c(N3CCCNS3(=O)=O)c3cc(Cl)ccc32)ccn1 | – | > 20000 | Not Active
Nc1cc(Cn2c(C(=O)O)c(-c3c[nH]c(=O)[nH]c3=O)c3cc(Cl)ccc32)ccn1 | 2 | 31 | –
O=C(O)c1c(-c2ccccc2F)c2cc(Cl)ccc2n1Cc1cccc(OC(F)(F)F)c1 | > 25 | 1800 | –
Nc1cc(Cn2c(C(=O)O)c(-n3c(=O)[nH]c4cscc4c3=O)c3cc(C(F)(F)F)ccc32)ccn1 | 1.4 | 32 | –
O=C(O)c1[nH]c2ccc(Cl)cc2c1-c1ccccc1F | > 25 | 7300 | –

Second part, the compound after the results:

EC50 (Hepatitis C virus; [2]) [µM] | IC50 [1] [nM] | EC50 (Hepatitis C virus) | Structure (SMILES)
> 25 | > 48000 | – | O=C(O)c1c(-c2ccc(F)cc2)c2cc(Cl)ccc2n1Cc1cccc(Cl)c1
7.6 | 43 | – | O=C(O)c1c(-c2ccc[nH]c2=O)c2cc(Br)ccc2n1Cc1ccc(F)cc1F
10 | 35 | – | O=C(O)c1c(-c2ccc[nH]c2=O)c2cc(Cl)ccc2n1Cc1ccc(F)cc1F
> 25 | 1200 | – | O=C(O)c1c(-c2ccccc2F)c2cc(Cl)ccc2n1Cc1ccncc1
> 25 | 10000 | – | COc1ccccc1-c1c(C(=O)O)n(Cc2ccccc2F)c2ccc(Cl)cc12
> 25 | > 44000 | – | O=C(O)c1c(-c2ccccc2F)c2cc(Cl)ccc2n1Cc1cccc(C(F)(F)F)c1
> 25 | 300 | – | O=C(O)c1c(-c2ccccc2F)c2cc(Cl)ccc2n1Cc1cc(F)ccc1F
> 25 | 1100 | – | O=C(O)c1c(-c2ccc(F)cc2F)c2cc(Cl)ccc2n1Cc1cccc(Cl)c1
> 25 | 200 | – | Nc1cccc(Cn2c(C(=O)O)c(-c3ccccc3F)c3cc(Cl)ccc32)c1
> 25 | 2500 | – | Cc1cccc(Cn2c(C(=O)O)c(-c3ccccc3F)c3cc(Cl)ccc32)c1
4.8 | 25 | – | O=C(O)c1c(-c2ccc[nH]c2=O)c2cc(C(F)(F)F)ccc2n1Cc1ccc(F)cc1F
> 50 | 560 | – | O=C(O)c1c(-c2ccc[nH]c2=O)c2cc(C3CC3)ccc2n1Cc1ccc(F)cc1F
> 25 | 600 | – | Nc1ccccc1Cn1c(C(=O)O)c(-c2ccccc2F)c2cc(Cl)ccc21
0.3 | 17 | – | Nc1cc(Cn2c(C(=O)O)c(-c3ccc[nH]c3=O)c3cc(C(F)(F)F)ccc32)ccn1
> 25 | 300 | – | O=C(O)c1c(-c2cccnc2F)c2cc(Cl)ccc2n1Cc1ccc(F)cc1F
> 25 | 1300 | – | Cc1ccc(Cn2c(C(=O)O)c(-c3ccccc3F)c3cc(Cl)ccc32)cc1N
> 100 | – | – | O=C(O)c1c(-c2ccccc2F)c2cc(Cl)ccc2n1Cc1ccccc1
– | 46 | – | Cc1ccc2c(c1)c(-c1ccc[nH]c1=O)c(C(=O)O)n2Cc1ccc(F)cc1F
11 | 43 | – | COc1ccc2c(c1)c(-c1ccc[nH]c1=O)c(C(=O)O)n2Cc1ccc(F)cc1F
> 25 | > 46000 | – | O=C(O)c1c(-c2ccc(F)c(F)c2)c2cc(Cl)ccc2n1Cc1cccc(Cl)c1
19 | 150 | – | O=C(O)c1c(-n2ccccc2=O)c2cc(Cl)ccc2n1Cc1ccccc1F
12 | 59 | – | O=C(O)c1c(-n2c(=O)[nH]c3cscc3c2=O)c2cc(C(F)(F)F)ccc2n1Cc1ccc(F)cc1F
> 25 | 1400 | – | O=C(O)c1c(-c2ccccc2O)c2cc(Cl)ccc2n1Cc1cc(F)ccc1F
10 | 47 | – | O=C(O)c1c(-c2c[nH]c(=O)[nH]c2=O)c2cc(Cl)ccc2n1Cc1ccc(F)cc1F
20 | 120 | – | CCOc1ccc2c(c1)c(-c1ccc[nH]c1=O)c(C(=O)O)n2Cc1ccc(F)cc1F
4.8 | 53 | – | Nc1cc(Cn2c(C(=O)O)c(-c3ccc[nH]c3=O)c3cc(Cl)ccc32)ccn1
